Assay [1] concerns the target human dopamine transporter (Homo sapiens (Human), UniProt Q01959). Description: Dopamine functional uptake assay, recombinant human transporter in CHO-K1 or HEK293 cells. To be noted: read-out: hDAT IC50. It is filed as cell-based.
For assay [2], the target named is 5-HT Transporter (SERT) sites in mouse brain (Mus musculus (Mouse), UniProt Q60857). In words: Ex vivo [3H] citalopram binding to SERT sites in mouse brain after oral dosing. To be noted: mice, 60 min after treatment; for receptor occupancy at 1 mg/kg / receptor occupancy at 3 mg/kg / receptor occupancy at 10 mg/kg / receptor occupancy at 30 mg/kg: mouse.
Assay [3] concerns the target DA Transporter (DAT) sites in mouse brain (Mus musculus (Mouse), UniProt Q61327). Description: Ex vivo [3H] WIN 35428 binding to DAT sites in mouse brain after oral dosing. To be noted: mice, 60 min after treatment; for receptor occupancy at 1 mg/kg / receptor occupancy at 3 mg/kg / receptor occupancy at 10 mg/kg / receptor occupancy at 30 mg/kg: mouse.
Assay [4] concerns the target T1, Norepinephrine Transporter (NET) sites in mouse brain (Mus musculus (Mouse), UniProt O55192). Particulars: mice, 60 min after treatment.
Assay [5] addresses T1, Norepinephrine Transporter (NET) sites in mouse brain. In words: in vivo. Particulars: po, read-out: NET % Transporter Occupancy.
The test system of the next assay is mice. In words: Mouse tail suspension test. It is filed as in vivo. Particulars: 30 mg/kg PO.
The subject of the next assay is Rats. Description: Rat forced swim test. It is filed as in vivo.
In assay [6] the target is human serotonin transporter (Homo sapiens (Human), UniProt P31645). In words: Serotonin functional uptake assay, recombinant human transporter in HEK-293 cells. Format: cell-based.
Setting [7] is: Human serotonin transporter uptake, read-out: hSERT IC50.

Structures can show the parent of a compound that is named as a salt. Where two headings read alike, the source gives them in different places.

human dopamine transporter, sequence (Q01959 whole entry): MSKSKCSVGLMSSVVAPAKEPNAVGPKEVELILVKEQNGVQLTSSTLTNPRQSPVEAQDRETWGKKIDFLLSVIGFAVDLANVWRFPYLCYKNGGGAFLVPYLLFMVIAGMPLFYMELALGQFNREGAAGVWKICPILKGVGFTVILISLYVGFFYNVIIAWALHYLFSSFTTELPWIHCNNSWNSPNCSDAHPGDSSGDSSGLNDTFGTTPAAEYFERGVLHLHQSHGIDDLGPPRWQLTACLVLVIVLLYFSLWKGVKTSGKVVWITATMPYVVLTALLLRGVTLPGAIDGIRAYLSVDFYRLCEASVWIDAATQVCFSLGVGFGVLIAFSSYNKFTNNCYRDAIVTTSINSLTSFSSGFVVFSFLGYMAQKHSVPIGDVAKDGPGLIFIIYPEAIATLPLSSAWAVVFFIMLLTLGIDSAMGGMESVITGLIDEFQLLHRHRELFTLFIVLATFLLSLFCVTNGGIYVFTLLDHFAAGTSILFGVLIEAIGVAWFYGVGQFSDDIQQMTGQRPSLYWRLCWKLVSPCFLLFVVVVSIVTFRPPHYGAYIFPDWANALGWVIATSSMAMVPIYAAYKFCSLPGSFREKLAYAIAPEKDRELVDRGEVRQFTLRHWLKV
human serotonin transporter, sequence (P31645 whole entry): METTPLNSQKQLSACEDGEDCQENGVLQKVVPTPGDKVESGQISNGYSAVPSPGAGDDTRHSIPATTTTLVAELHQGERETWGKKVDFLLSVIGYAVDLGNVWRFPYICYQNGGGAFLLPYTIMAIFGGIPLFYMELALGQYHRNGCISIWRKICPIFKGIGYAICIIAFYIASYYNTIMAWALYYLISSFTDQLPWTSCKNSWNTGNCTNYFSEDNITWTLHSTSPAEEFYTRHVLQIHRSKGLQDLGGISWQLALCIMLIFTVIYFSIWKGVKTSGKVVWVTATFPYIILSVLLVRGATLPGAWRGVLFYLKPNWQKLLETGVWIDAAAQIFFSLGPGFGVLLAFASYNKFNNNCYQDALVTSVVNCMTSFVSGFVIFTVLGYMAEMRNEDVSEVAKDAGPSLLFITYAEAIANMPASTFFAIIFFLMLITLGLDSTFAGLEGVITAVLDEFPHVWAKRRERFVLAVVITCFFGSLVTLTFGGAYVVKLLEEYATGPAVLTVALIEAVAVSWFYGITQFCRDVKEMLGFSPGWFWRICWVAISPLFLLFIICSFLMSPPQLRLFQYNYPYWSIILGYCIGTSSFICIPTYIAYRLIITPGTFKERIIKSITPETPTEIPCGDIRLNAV

The IC50 is the concentration that gives 50% inhibition. Regarding `CN(C)CC1(c2ccc(Cl)c(Cl)c2)CCC(C)(O)CC1` (stereo not shown) [Compound 277, 4-(3,4-dichlorophenyl)-4-((dimethylamino)methyl)-1-methylcyclohexanol], the IC50 in assay [1] stood at 0.041 µM. Further, the “SERT Mean Specific Binding ± S.E.M.” value in assay [2] (1 mg/kg PO) came to 1508 ± 86 dpm; in assay [2] (3 mg/kg PO), 1491 ± 75 dpm; in assay [2] (10 mg/kg PO), 1416 ± 43 dpm; in assay [2] (30 mg/kg PO), 1384 ± 101 dpm. Further, the receptor occupancy at 1 mg/kg is -6% in assay [2] (1 mg/kg PO), 17% in assay [3] (1 mg/kg PO) and 6% in assay [5]. Besides, the values for the receptor occupancy at 3 mg/kg in assay [2] (3 mg/kg PO), in assay [3] (3 mg/kg PO) and in assay [5] were -5%, 21% and 18%, respectively. Also, the receptor occupancy at 10 mg/kg was 0% in assay [2] (10 mg/kg PO), 23% in assay [3] (10 mg/kg PO) and 47% in assay [5]. Moreover, the receptor occupancy at 30 mg/kg in assay [2] (30 mg/kg PO) was 3%; in assay [3] (30 mg/kg PO), 26%; in assay [5], 71%. For the same compound, the “DAT Mean Specific Binding ± S.E.M.” value in assay [3] (1 mg/kg PO) was determined as 35827 ± 2302 dpm; in assay [3] (3 mg/kg PO), 34136 ± 4104 dpm; in assay [3] (10 mg/kg PO), 33230 ± 2807 dpm; in assay [3] (30 mg/kg PO), 31743 ± 4406 dpm. In addition, the “NET Mean Specific Binding ± S.E.M.” value in assay [4] (1 mg/kg PO) was determined as 950 ± 46 dpm; in assay [4] (3 mg/kg PO), 824 ± 30 dpm; in assay [4] (10 mg/kg PO), 533 ± 25 dpm; in assay [4] (30 mg/kg PO), 294 ± 42 dpm.

On to `CNCC1(c2ccc(Cl)c(Cl)c2)CCC(C)(O)CC1` (stereo not shown) [Compound 276, 4-(3,4-dichlorophenyl)-1-methyl-4-((methylamino)methyl)cyclohexanol], for which, in assay [1], the IC50 worked out at 0.071 µM. The “SERT Mean Specific Binding ± S.E.M.” value in assay [2] (1 mg/kg PO) is recorded as 3743 ± 199 dpm; in assay [2] (3 mg/kg PO) it was 3685 ± 292 dpm; in assay [2] (10 mg/kg PO), 3092 ± 207 dpm; in assay [2] (30 mg/kg PO), 1558 ± 169 dpm. For the same compound, the receptor occupancy at 1 mg/kg in assay [2] (1 mg/kg PO) was 12%; in assay [3] (1 mg/kg PO) it was -21%; in assay [5], -4%. The values for the receptor occupancy at 3 mg/kg in assay [2] (3 mg/kg PO), in assay [3] (3 mg/kg PO) and in assay [5] were 14%, -9% and -6%, respectively. Besides, the receptor occupancy at 10 mg/kg in assay [2] (10 mg/kg PO) was 28%; in assay [3] (10 mg/kg PO), -6%; in assay [5] it was -1%. The figures for the receptor occupancy at 30 mg/kg in assay [2] (30 mg/kg PO), in assay [3] (30 mg/kg PO) and in assay [5] were 64%, 31% and 26%, respectively. For the same compound, the “DAT Mean Specific Binding ± S.E.M.” value amounted to 16312 ± 2396 dpm in assay [3] (3 mg/kg PO), 15879 ± 2265 dpm in assay [3] (10 mg/kg PO) and 10397 ± 931 dpm in assay [3] (30 mg/kg PO). Moreover, the “NET Mean Specific Binding ± S.E.M.” value in assay [4] (1 mg/kg PO) stood at 1602 ± 51 dpm; in assay [4] (3 mg/kg PO), 1631 ± 92 dpm; in assay [4] (10 mg/kg PO), 1553 ± 27 dpm; in assay [4] (30 mg/kg PO), 1138 ± 59 dpm.

For the compound `CNCC1(c2ccc3ccccc3c2)CCCCC1` [Compound 93, N-methyl-1-(1-(naphthalen-2-yl)cyclohexyl)methanamine], in the assay with mice, the “Mouse Tail Suspension Mean Immobility Time ± S.E.M.” value is on record as 162.0 ± 8.1. For the same compound, in the assay with Rats (3 mg/kg PO), the “Rat Forced Swim Climbing (Means ± S.E.M.)” value (“Rat Forced Swim Climbing” for short) turned out to be 9.0 ± 1.3, the “Rat Forced Swim Immobility (Means ± S.E.M.)” value (shortened to “Rat Forced Swim Immobility”) came to 44.5 ± 2.5 and the “Rat Forced Swim Swimming (Means ± S.E.M.)” value (from here on “Rat Forced Swim Swimming”) came to 6.5 ± 1.6. For the same compound, in the assay on Rats (10 mg/kg PO), the “Rat Forced Swim Climbing” value worked out at 12.8 ± 2.2, the “Rat Forced Swim Immobility” value is reported as 41.4 ± 2.8 and the “Rat Forced Swim Swimming” value is listed as 6.9 ± 1.3. In the assay on Rats (30 mg/kg PO), the “Rat Forced Swim Climbing” value turned out to be 22.2 ± 3.5, the “Rat Forced Swim Immobility” value is on record as 25.8 ± 5.4 and the “Rat Forced Swim Swimming” value worked out at 12.0 ± 2.1.

Consider `CN(C)C[C@]1(c2ccc3ccccc3c2)CCCC[C@H]1O` (relative stereo) [164 E2, trans-2-((dimethylamino)methyl)-2-(naphthalen-2-yl)cyclohexanol], for which the “Mouse Tail Suspension Mean Immobility Time ± S.E.M.” value in the assay on mice was 141.8 ± 6.0.

Turning to `CCNC[C@@]1(c2ccc(Cl)c(Cl)c2)CCCC[C@H]1C` (racemic) [Compound 177, (±) cis-N-((1-(3,4-dichlorophenyl)-2-methylcyclohexyl)methyl)ethanamine], the IC50 is 3.22 µM in assay [6] (setting [7]) and 0.322 µM in assay [1].

On to `CN(C)C[C@]1(c2ccc(C(F)(F)F)cc2)CCCC[C@H]1O` (single isomer, unassigned) [160 E2, trans-2-((dimethylamino)methyl)-2-(4-(trifluoromethyl)phenyl)cyclohexanol], for which the IC50 in assay [6] (setting [7]) is 5.09 µM; in assay [1] it was greater than 10 µM.

With `CNC[C@]1(c2ccc(OC)cc2)CCCC[C@H]1O` (single isomer, unassigned) [140 E1, (±) trans-2-(4-Methoxyphenyl)-2-((methylamino)methyl)cyclohexanol], the IC50 in assay [6] (setting [7]) was determined as 2.69 µM; in assay [1], 8.82 µM.

Regarding `C[C@@H]1CCCC[C@@]1(CN(C)C)c1ccc(Cl)c(Cl)c1` (racemic) [Compound 175, (±) cis-1-(1-(3,4-dichlorophenyl)-2-methylcyclohexyl)-N,N-dimethylmethanamine hydrochloride], the IC50 in assay [6] (setting [7]) turned out to be 0.055 µM; in assay [1], 0.125 µM.

Consider `CN(C)C[C@]1(c2ccc(Cl)cc2)CCCC[C@H]1O` (single isomer, unassigned) [154 E2, trans-2-(4-chlorophenyl)-2-((dimethylamino)methyl)cyclohexanol], for which the IC50 in assay [6] (setting [7]) came out at 0.439 µM; in assay [1], 0.888 µM.

In the case of `C[C@@H]1CCCC[C@@]1(CN)c1ccc(Cl)c(Cl)c1` (racemic) [Compound 174, (±)-cis-(1-(3,4-dichlorophenyl)-2-methylcyclohexyl)methanamine hydrochloride], the IC50 in assay [6] (setting [7]) turned out to be 0.246 µM; in assay [1], 2.78 µM.

Turning to `CN(C)C[C@]1(c2ccc(Cl)c(F)c2)CCCC[C@H]1O` (single isomer, unassigned) [158 E1, Trans-2-(4-chloro-3-fluorophenyl)-2-((dimethylamino)methyl)cyclohexanol], the results for the IC50 in assay [6] (setting [7]) and in assay [1] were 8.44 µM and 0.945 µM, respectively.

As to `CN(C)C[C@@]1(c2ccc(C(F)(F)F)cc2)CCCC[C@H]1O` (single isomer, unassigned) [159 E1, cis-2-((dimethylamino)methyl)-2-(4-(trifluoromethyl)phenyl)cyclohexanol], the figures for the IC50 in assay [6] (setting [7]) and in assay [1] were 1.26 µM and 3.8 µM, respectively.

As to `CCN(C)[C@H]1CC[C@@](CN)(c2ccc(Cl)c(Cl)c2)CC1` [Compound 290, trans-4-(aminomethyl)-4-(3,4-dichlorophenyl)-N-ethyl-N-methylcyclo-hexanamine], the results for the IC50 in assay [6] (setting [7]) and in assay [1] were 0.992 µM and 1.39 µM, respectively.

For the compound `COc1ccc([C@@]2(CN(C)C)CCCC[C@H]2O)cc1` (single isomer, unassigned) [156 E2, trans-2-((dimethylamino)methyl)-2-(4-methoxyphenyl)cyclohexanol], the IC50 in assay [6] (setting [7]) came out at 0.653 µM; in assay [1], 4 µM.

On to `CN(C)C[C@@]1(c2ccc(Cl)c(F)c2)CCCC[C@H]1O` (single isomer, unassigned) [157 E2, Cis-2-(4-chloro-3-fluorophenyl)-2-((dimethylamino)methyl)cyclohexanol], for which the IC50 in assay [6] (setting [7]) stood at 0.29 µM; in assay [1], 0.849 µM.

On to `CN(C)C[C@@]1(c2ccc(Cl)c(Cl)c2)CCCC[C@H]1O` (single isomer, unassigned) [152 E2, cis-2-(3,4-dichlorophenyl)-2-((dimethylamino)methyl)cyclohexanol], for which the IC50 was determined as 0.077 µM in assay [6] (setting [7]) and […] in assay [1].

Regarding `CNC[C@@]1(c2ccc(OC(F)(F)F)cc2)CCCC[C@H]1O` (single isomer, unassigned) [145 E2, cis-2-((Methylamino)methyl)-2-(4-(trifluoromethoxy)phenyl) cyclohexanol], the IC50 in assay [6] (setting [7]) stood at 0.22 µM; in assay [1], 6.52 µM.

Take `CNC[C@]1(c2cccc(Cl)c2)CCCC[C@H]1O` (single isomer, unassigned) [138 E1, trans-2-(3-chlorophenyl)-2-((methylamino)methyl)cyclohexanol]: the IC50 in assay [6] (hSERT IC50) is greater than 10 µM; in assay [1], 0.918 µM.

For the origin of these results see patent US10562878B2, “Cycloalkylamines as monoamine reuptake inhibitors” (Sunovion Pharmaceuticals Inc., priority 2006, dated 2020).
